Results published in patent US20230085307A1, “PYRIDAZINONE COMPOUND AND HERBICIDE” (NISSAN CHEMICAL CORPORATION, priority 2019, published 2023).

Tests used:
[1] = tested on: Italian ryegrass; experiment: Test Example 4: herbicidal effect by soil treatment (Table 19, symbol K); format: in vivo, Italian ryegrass (Lolium multiflorum); conditions: amount of applied herbicide 320 g/ha
How it was run: (§1)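 Pre-emergence style soil spray: seeds under ~1.5 cm sterilized diluvial soil received a uniform coat of emulsion diluted to the predetermined herbicide amount. Greenhouse 25–30° C; readout at week three on previously defined criteria.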

[2] = tested on: barnyard grass; experiment: Test Example 3: herbicidal effect by foliage application, Wagner pot (Table 18, symbol H); format: in vivo, barnyard grass (Echinochloa crus-galli); conditions: 320 g/ha
How it was run: (§2)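 Plants were sown in alluvial soil held under 0.1–0.5 cm standing water and grown 14 days in a greenhouse at 25–30 °C. An emulsifiable formulation, water-diluted to the set dose, was then sprayed onto the foliage, and effects were scored three weeks later using previously defined criteria.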

[3] = tested on: chickweed; experiment: Test Example 5: herbicidal effect by foliage application, plastic box (Table 20, symbol P); format: in vivo, common chickweed (Stellaria media); conditions: amount of applied herbicide 320 g/ha; foliage application after 14-day growth; evaluated three weeks after application
How it was run: (§3)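 Plants were sown into sterilized diluvial soil under about 1.5 cm cover and kept in a greenhouse at 25° C. to 30° C. Fourteen days on, foliage received an even spray of the diluted emulsion. Herbicidal or crop effect was judged three weeks afterwards.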

[4] = tested on: lambsquarters; experiment: Test Example 4: herbicidal effect by soil treatment (Table 19, symbol O); format: in vivo, lambsquarters (Chenopodium album); conditions: amount of applied herbicide 320 g/ha
How it was run: as §1

[5] = tested on: blackgrass; experiment: Test Example 5: herbicidal effect by foliage application, plastic box (Table 20, symbol J); format: in vivo, blackgrass (Alopecurus myosuroides); conditions: amount of applied herbicide 320 g/ha; foliage application after 14-day growth; evaluated three weeks after application
How it was run: as §3

[6] = tested on: southern crabgrass; experiment: Test Example 5: herbicidal effect by foliage application, plastic box (Table 20, symbol F); format: in vivo, southern crabgrass (Digitaria ciliaris); conditions: amount of applied herbicide 320 g/ha; foliage application after 14-day growth; evaluated three weeks after application
How it was run: as §3

[7] = tested on: chickweed; experiment: Test Example 4: herbicidal effect by soil treatment (Table 19, symbol P); format: in vivo, common chickweed (Stellaria media); conditions: amount of applied herbicide 320 g/ha
How it was run: as §1

[8] = tested on: Japanese bulrush; experiment: Test Example 1: herbicidal activity, application before weed generation under submerged conditions (Table 16, symbol B); format: in vivo, Japanese bulrush (Schoenoplectus juncoides); conditions: amount of applied herbicide 320 g/ha
How it was run: (§4)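 Alluvial soil was flooded to 4 cm depth, weed seeds were sown mixed and 2.5-leaf rice seedlings were transplanted. On sowing day, the compound's emulsion, diluted in water to a set dose, was applied to the water surface. Plants grew at 25–30 °C and were scored 0–5 after three weeks.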

[9] = tested on: green foxtail; experiment: Test Example 4: herbicidal effect by soil treatment (Table 19, symbol G); format: in vivo, green foxtail (Setaria viridis); conditions: amount of applied herbicide 320 g/ha
How it was run: as §1

[10] = tested on: redroot pigweed; experiment: Test Example 5: herbicidal effect by foliage application, plastic box (Table 20, symbol N); format: in vivo, redroot pigweed (Amaranthus retroflexus); conditions: amount of applied herbicide 320 g/ha; foliage application after 14-day growth; evaluated three weeks after application
How it was run: as §3

[11] = tested on: rice flat sedge; experiment: Test Example 3: herbicidal effect by foliage application, Wagner pot (Table 18, symbol E); format: in vivo, rice flat sedge (Cyperus iria); conditions: 320 g/ha
How it was run: as §2

[12] = tested on: windgrass; experiment: Test Example 4: herbicidal effect by soil treatment (Table 19, symbol L); format: in vivo, windgrass (Apera spica-venti); conditions: amount of applied herbicide 320 g/ha
How it was run: as §1

[13] = tested on: lambsquarters; experiment: Test Example 5: herbicidal effect by foliage application, plastic box (Table 20, symbol O); format: in vivo, lambsquarters (Chenopodium album); conditions: amount of applied herbicide 320 g/ha; foliage application after 14-day growth; evaluated three weeks after application
How it was run: as §3

[14] = tested on: barnyard grass; experiment: Test Example 4: herbicidal effect by soil treatment (Table 19, symbol H); format: in vivo, barnyard grass (Echinochloa crus-galli); conditions: amount of applied herbicide 320 g/ha
How it was run: as §1

[15] = tested on: wild oat; experiment: Test Example 4: herbicidal effect by soil treatment (Table 19, symbol I); format: in vivo, wild oat (Avena fatua); conditions: amount of applied herbicide 320 g/ha
How it was run: as §1

[16] = tested on: Chinese sprangletop; experiment: Test Example 3: herbicidal effect by foliage application, Wagner pot (Table 18, symbol D); format: in vivo, chinese sprangletop (Leptochloa chinensis); conditions: 320 g/ha
How it was run: as §2

[17] = tested on: Italian ryegrass; experiment: Test Example 5: herbicidal effect by foliage application, plastic box (Table 20, symbol K); format: in vivo, Italian ryegrass (Lolium multiflorum); conditions: amount of applied herbicide 320 g/ha; foliage application after 14-day growth; evaluated three weeks after application
How it was run: as §3

[18] = tested on: barnyard grass; experiment: Test Example 5: herbicidal effect by foliage application, plastic box (Table 20, symbol H); format: in vivo, barnyard grass (Echinochloa crus-galli); conditions: amount of applied herbicide 320 g/ha; foliage application after 14-day growth; evaluated three weeks after application
How it was run: as §3

[19] = tested on: windgrass; experiment: Test Example 5: herbicidal effect by foliage application, plastic box (Table 20, symbol L); format: in vivo, windgrass (Apera spica-venti); conditions: amount of applied herbicide 320 g/ha; foliage application after 14-day growth; evaluated three weeks after application
How it was run: as §3

[20] = tested on: velvetleaf; experiment: Test Example 4: herbicidal effect by soil treatment (Table 19, symbol M); format: in vivo, velvetleaf (Abutilon theophrasti); conditions: amount of applied herbicide 320 g/ha
How it was run: as §1

[21] = tested on: redroot pigweed; experiment: Test Example 4: herbicidal effect by soil treatment (Table 19, symbol N); format: in vivo, redroot pigweed (Amaranthus retroflexus); conditions: amount of applied herbicide 320 g/ha
How it was run: as §1

[22] = tested on: wild oat; experiment: Test Example 5: herbicidal effect by foliage application, plastic box (Table 20, symbol I); format: in vivo, wild oat (Avena fatua); conditions: amount of applied herbicide 320 g/ha; foliage application after 14-day growth; evaluated three weeks after application
How it was run: as §3

[23] = tested on: velvetleaf; experiment: Test Example 5: herbicidal effect by foliage application, plastic box (Table 20, symbol M); format: in vivo, velvetleaf (Abutilon theophrasti); conditions: amount of applied herbicide 320 g/ha; foliage application after 14-day growth; evaluated three weeks after application
How it was run: as §3

[24] = tested on: late watergrass; experiment: Test Example 1: herbicidal activity, application before weed generation under submerged conditions (Table 16, symbol A); format: in vivo, late watergrass (Echinochloa oryzicola); conditions: amount of applied herbicide 320 g/ha
How it was run: as §4

[25] = tested on: green foxtail; experiment: Test Example 5: herbicidal effect by foliage application, plastic box (Table 20, symbol G); format: in vivo, green foxtail (Setaria viridis); conditions: amount of applied herbicide 320 g/ha; foliage application after 14-day growth; evaluated three weeks after application
How it was run: as §3

[26] = tested on: blackgrass; experiment: Test Example 4: herbicidal effect by soil treatment (Table 19, symbol J); format: in vivo, blackgrass (Alopecurus myosuroides); conditions: amount of applied herbicide 320 g/ha
How it was run: as §1

[27] = tested on: persian speedwell; experiment: Test Example 5: herbicidal effect by foliage application, plastic box (Table 20, symbol R); format: in vivo, Persian speedwell (Veronica persica); conditions: amount of applied herbicide 320 g/ha; foliage application after 14-day growth; evaluated three weeks after application
How it was run: as §3

[28] = tested on: southern crabgrass; experiment: Test Example 4: herbicidal effect by soil treatment (Table 19, symbol F); format: in vivo, southern crabgrass (Digitaria ciliaris); conditions: amount of applied herbicide 320 g/ha
How it was run: as §1

[29] = tested on: oval-leafed pondweed; experiment: Test Example 1: herbicidal activity, application before weed generation under submerged conditions (Table 16, symbol C); format: in vivo, oval-leafed pondweed (Monochoria vaginalis); conditions: amount of applied herbicide 320 g/ha
How it was run: as §4

[30] = tested on: persian speedwell; experiment: Test Example 4: herbicidal effect by soil treatment (Table 19, symbol R); format: in vivo, Persian speedwell (Veronica persica); conditions: amount of applied herbicide 320 g/ha
How it was run: as §1

Question: `CCOc1ccccc1-c1sc2c(C)cccc2c1-c1c(O)c(C)nn(C)c1=O` [4-112] was tested. Which “Herbicidal effect by soil treatment, K: Italian ryegrass” value [1] did it give?
Answer: Its value is 3 (Herbicidal rate of 40% or more and less than 70%).

Question: What about the “herbicidal effect on barnyard grass (H)” value [2] of the same molecule?
Answer: The value was 5 (Herbicidal rate of 90% or more (almost completely withered)).

Question: And the “Herbicidal effect by foliage application, P: chickweed” value [3]?
Answer: The value was 5 (Herbicidal rate of 90% or more (almost completely withered)).

Question: And the “Herbicidal effect by soil treatment, O: lambsquarters” value [4]?
Answer: Its value is 3 (Herbicidal rate of 40% or more and less than 70%).

Question: What about the “Herbicidal effect by foliage application, J: blackgrass” value [5] of the same molecule?
Answer: The value was 5 (Herbicidal rate of 90% or more (almost completely withered)).

Question: What about the “Herbicidal effect by foliage application, F: southern crabgrass” value [6] of the same molecule?
Answer: Its value is 4 (Herbicidal rate of 70% or more and less than 90%).

Question: And the “Herbicidal effect by soil treatment, P: chickweed” value [7]?
Answer: The value was 3 (Herbicidal rate of 40% or more and less than 70%).

Question: What about the “Herbicidal effect, B: Japanese bulrush” value [8] of the same molecule?
Answer: Its value is 3 (Herbicidal rate of 40% or more and less than 70%).

Question: What about the “Herbicidal effect by soil treatment, G: green foxtail” value [9] of the same molecule?
Answer: Its value is 4 (Herbicidal rate of 70% or more and less than 90%).

Question: What about the “Herbicidal effect by foliage application, N: redroot pigweed” value [10] of the same molecule?
Answer: The value was 5 (Herbicidal rate of 90% or more (almost completely withered)).

Question: What about the “herbicidal effect on rice flat sedge (E)” value [11] of the same molecule?
Answer: Its value is 5 (Herbicidal rate of 90% or more (almost completely withered)).

Question: What about the “Herbicidal effect by soil treatment, L: windgrass” value [12] of the same molecule?
Answer: The value was 4 (Herbicidal rate of 70% or more and less than 90%).

Question: And the “Herbicidal effect by foliage application, O: lambsquarters” value [13]?
Answer: Its value is 5 (Herbicidal rate of 90% or more (almost completely withered)).

Question: What about the “Herbicidal effect by soil treatment, H: barnyard grass” value [14] of the same molecule?
Answer: The value was 3 (Herbicidal rate of 40% or more and less than 70%).

Question: And the “Herbicidal effect by soil treatment, I: wild oat” value [15]?
Answer: Its value is 0 (Herbicidal rate of 5% or less (almost no effect)).

Question: What about the “herbicidal effect on Chinese sprangletop (D)” value [16] of the same molecule?
Answer: The value was 4 (Herbicidal rate of 70% or more and less than 90%).

Question: What about the “Herbicidal effect by foliage application, K: Italian ryegrass” value [17] of the same molecule?
Answer: Its value is 4 (Herbicidal rate of 70% or more and less than 90%).

Question: And the “Herbicidal effect by foliage application, H: barnyard grass” value [18]?
Answer: Its value is 4 (Herbicidal rate of 70% or more and less than 90%).

Question: What about the “Herbicidal effect by foliage application, L: windgrass” value [19] of the same molecule?
Answer: Its value is 5 (Herbicidal rate of 90% or more (almost completely withered)).

Question: And the “Herbicidal effect by soil treatment, M: velvetleaf” value [20]?
Answer: Its value is 3 (Herbicidal rate of 40% or more and less than 70%).

Question: What about the “Herbicidal effect by soil treatment, N: redroot pigweed” value [21] of the same molecule?
Answer: The value was 4 (Herbicidal rate of 70% or more and less than 90%).

Question: What about the “Herbicidal effect by foliage application, I: wild oat” value [22] of the same molecule?
Answer: Its value is 4 (Herbicidal rate of 70% or more and less than 90%).

Question: What about the “Herbicidal effect by foliage application, M: velvetleaf” value [23] of the same molecule?
Answer: The value was 5 (Herbicidal rate of 90% or more (almost completely withered)).

Question: What about the “Herbicidal effect, A: late watergrass” value [24] of the same molecule?
Answer: The value was 3 (Herbicidal rate of 40% or more and less than 70%).

Question: What about the “Herbicidal effect by foliage application, G: green foxtail” value [25] of the same molecule?
Answer: Its value is 5 (Herbicidal rate of 90% or more (almost completely withered)).

Question: And the “Herbicidal effect by soil treatment, J: blackgrass” value [26]?
Answer: Its value is 2 (Herbicidal rate of 20% or more and less than 40%).

Question: And the “Herbicidal effect by foliage application, R: persian speedwell” value [27]?
Answer: Its value is 5 (Herbicidal rate of 90% or more (almost completely withered)).

Question: What about the “Herbicidal effect by soil treatment, F: southern crabgrass” value [28] of the same molecule?
Answer: The value was 3 (Herbicidal rate of 40% or more and less than 70%).

Question: What about the “Herbicidal effect, C: oval-leafed pondweed” value [29] of the same molecule?
Answer: The value was 0 (Herbicidal rate of 5% or less (almost no effect)).

Question: What about the “Herbicidal effect by soil treatment, R: persian speedwell” value [30] of the same molecule?
Answer: The value was 5 (Herbicidal rate of 90% or more (almost completely withered)).
